Reference: a compilation of properties of binary mixtures (doi:10.1016/j.jct.2020.106330)

Assay: xn = mol fraction of the nth substance listed
Conditions: 101.3 kPa

CCCC[n+]1ccn(C)c1.F[P-](F)(F)(F)(F)F + CN1CCCC1=O
speed of sound [m/s]
Conditions	303.15 K	308.15 K	313.15 K	318.15 K	323.15 K
x1 = 0.0513	1522.2	1503.9	1485.8	–	1450.1
x1 = 0.1028	1516.1	1498.8	1481.6	1464.5	1447.6
x1 = 0.1422	1510	1493.2	1476.6	1460.1	1443.8
x1 = 0.1894	–	1486	1470	1454.1	1438.4
x1 = 0.2988	–	1470.9	1456	1441.3	1426.7
x1 = 0.499	1460.7	1447.2	1433.9	–	1407.6
x1 = 0.591	–	1438.8	1425.9	–	1400.6
x1 = 0.6991	–	–	1419.4	1407.1	–
x1 = 0.812	1437.9	1425.8	1413.8	1402	1390.3
x1 = 0.8415	1436.6	1424.5	1412.6	1400.9	1389.3
x1 = 0.8812	1434.9	–	1411.2	1399.6	1388.1
x1 = 0.9423	1432.9	1421.1	–	1398	–
x1 = 1	–	1419.8	1408.2	1396.8	1385.6

CN1CCCC1=O + CCCC[n+]1ccn(C)c1.F[P-](F)(F)(F)(F)F
x2 = 0
Conditions	speed of sound [m/s]
308.15 K	1505
313.15 K	1485.7
318.15 K	1466.7
323.15 K	1447.8
